# Measurements published in patent US20080033026A1, “Antimicrobial compositions, methods and systems” (priority 2006, published 2008).
# Assays:
# [1] = test system: Bacillus cereus ATCC 14579; assay: Growth inhibition in MRS medium at various pH levels (OD600); assay type: cell-based; conditions: 0.1% w/v (as 9DA)
# Protocol: (§1) Efficacy of potassium salts of 9-DA was tested at various pH levels against the following: Serratia marcescens ATCC 990, and Bacillus cereus ATCC 14579.
# (§2) Stock cultures of each organism were transferred into MRS liquid medium. MRS medium (Difco 288130) was purchased from Becton, Dickinson and Company, Sparks, Md.
# (§3) The efficacy of potassium salts of 9-DA (K-9-DA) was tested at different concentrations and pH levels, including 6.75 (unadjusted), 7.5, and 8.5.
# (§4) The selected organisms were incubated overnight in 5 ml of MRS medium at 35° C. and 250 rpm. MRS media with K-9-DA were prepared, along with a control of straight media (no antimicrobial added). The antimicrobial agents were added by weight/volume percent to the media. The purity of the composition, 99% for K-9-DA, was taken into account. The pH adjustments to 7.5 and 8.5 were done with 50% potassium hydroxide. Filter sterilization was used instead of autoclaving to prevent adverse chemical reactions at higher pH and temperature. The target for initial cell density was 10^5 to 10^6 cfu/ml. According to the McFarland standard, 0.01 OD600 is equivalent to approximately 10^8 cfu/ml. To achieve the proper dilution, 30 μl of overnight culture diluted to 0.01 OD600 was added to the 3 ml of media in each tube. The tubes were incubated at 35° C. with the exception of Pseudomonas strains which were incubated at 30° C. Treatments were all done in duplicate. All strains were shaken at 250 rpm. OD600 readings were taken at 0, 19, 25.5, 42.5 and 49 hours.
# (§5) “Percent reduction in growth vs. control” was defined as (1−abs. of treatment/abs. of control)×100.
# [2] = test system: Serratia marcescens ATCC 990; assay: as above; assay type: cell-based; conditions: 0.1% w/v (as 9DA)
# Protocol: as §1, §2, §3, §4, §5
# [3] = test system: organisms of Table 14 with the exception of Serratia marcescens, Bacillus licheniformis, and Lactobacillus casei; assay: Growth inhibition in MRS medium (OD600), organisms of Table 14 except Serratia marcescens, Bacillus licheniformis, Lactobacillus casei; assay type: cell-based; conditions: all concentrations tested
# Protocol: (§6) Efficacy of potassium salts of 9-DA were determined through incubation of the following organisms in the presence of varying concentrations of the potassium salt: Serratia marcescens ATCC 990, Pseudomonas straminea ATCC 33636, Bacillus subtilis ATCC 6051, Bacillus licheniformis ATCC 14580, Bacillus cereus ATCC 14579, Pediococcus acidilactici ATCC 8042, and Lactobacillus casei ATCC 334.
# as §2
# (§7) The efficacy of different levels of potassium salts of 9-DA (K-9-DA) was tested depending on the organism to inhibit the growth of various microorganisms indicated above.
# The selected organisms were incubated overnight in 5 ml of MRS medium at 35° C. and 250 rpm. MRS media with K-9-DA were prepared, along with a control of straight media (no antimicrobial added). The concentrated antimicrobial agents were diluted with the appropriate media required for the respective microorganisms, to reach the required concentrations for the studies as indicated below. The antimicrobial agents were added by weight/volume percent on an ‘as 9-DA’ basis to the media. The purity of the antimicrobial agent (99% for K-9-DA) was taken into account. The pH of the medium was not adjusted. […] OD600 readings were taken at 0, 4, 17, 23 and 47 hours. […]
# [4] = Solubility studies in water and isopropanol (GC/FID); assay type: physicochemical; conditions: mg 9-decenoic acid/g solvent
# Protocol: For the antimicrobial agents of Formulae I-III, the solubility in an aqueous and an alcohol environment was studied. Solubility studies were carried out with the sodium (Na) and potassium (K) salts of 9-decenoic acid in water and isopropanol (IPA). Six samples were analyzed. The samples were as follows: Na salt in water, Na salt in IPA, K salt in water, K salt in IPA, 9-decenoic acid (protonated) in water, 9-decenoic acid (protonated) in IPA. For the protonated form of the acids, the samples were acidified and diluted in IPA and subjected to analysis by gas chromatography/flame ionization detector (GC/FID). The same procedure was followed for the Na and K salts in IPA. For the Na and K salts in water, the samples were acidified and then extracted with petroleum ether. The petroleum ether was then evaporated, and the samples were reconstituted in IPA, acidified and subjected to analysis by GC/FID. Concentrations were calculated by comparing the peak area of the sample to a calibration table of 9-decenoic acid. The calibration curve was linear from 1 mg/g to 500 mg/g. Results are reported in mg/g (mg 9-decenoic acid/g solvent).
# [5] = test system: all organisms tested in Tables 15-17 with the exception of Serratia marcescens; assay: Growth inhibition in MRS medium at various pH levels, organisms of Tables 15-17 except Serratia marcescens; assay type: cell-based
# Protocol: as §1, §2, §3
# as §4, with “The tubes were incubated at 35° C. with the exception of Pseudomonas strains which were incubated at 30° C. Treatments were all done in duplicate. All strains were shaken at 250 rpm.” left out, “hours. […]” for “hours.”
# [6] = test system: Pediococcus acidilactici ATCC 8042; assay: Growth inhibition in MRS medium (OD600); assay type: cell-based; conditions: n = 2
# Protocol: as §6, §2, §7
# (§8) The selected organisms were incubated overnight in 5 ml of MRS medium at 35° C. and 250 rpm. MRS media with K-9-DA were prepared, along with a control of straight media (no antimicrobial added). The concentrated antimicrobial agents were diluted with the appropriate media required for the respective microorganisms, to reach the required concentrations for the studies as indicated below. The antimicrobial agents were added by weight/volume percent on an ‘as 9-DA’ basis to the media. The purity of the antimicrobial agent (99% for K-9-DA) was taken into account. The pH of the medium was not adjusted. The target for initial cell density was 10^5 to 10^6 cfu/ml. According to the McFarland standard, 0.01 OD600 is equivalent to approximately 10^8 cfu/ml. To achieve the proper dilution, 30 μl of overnight culture diluted to 0.01 OD600 was added to the 3 ml of media in each tube. The tubes were incubated at 35° C. Treatments were all done in duplicate. All strains were shaken at 250 rpm, with the exception of Lactobacillus (because it is anaerobic). OD600 readings were taken at 0, 4, 17, 23 and 47 hours.
# (§9) “Percent reduction in comparison with control” was defined as (1−abs. of treatment/abs. of control)×100.
# [7] = test system: Bacillus licheniformis ATCC 14580; assay: Growth inhibition in MRS medium (OD600); assay type: cell-based; conditions: n = 2
# Protocol: as §6, §2, §7, §8, §9
# [8] = test system: Bacillus subtilis ATCC 6051; assay: Growth inhibition in MRS medium (OD600); assay type: cell-based; conditions: n = 2
# Protocol: as §6, §2, §7, §8, §9
# [9] = test system: Bacillus cereus ATCC 14579; assay: Growth inhibition in MRS medium (OD600); assay type: cell-based; conditions: n = 2
# Protocol: as §6, §2, §7, §8, §9
# [10] = test system: Pseudomonas straminea ATCC 33636; assay: Growth inhibition in MRS medium (OD600); assay type: cell-based; conditions: n = 2
# Protocol: as §6, §2, §7, §8, §9
# [11] = test system: Lactobacillus casei ATCC 334; assay: Growth inhibition in MRS medium (OD600); assay type: cell-based; conditions: n = 2
# Protocol: as §6, §2, §7, §8, §9
# [12] = test system: Serratia marcescens ATCC 990; assay: Growth inhibition in MRS medium (OD600); assay type: cell-based; conditions: n = 2
# Protocol: as §6, §2, §7, §8, §9
# [13] = test system: Pseudomonas straminea; assay: Growth inhibition in MRS medium at various pH levels (OD600); assay type: cell-based; conditions: 0.075% w/v (as 9DA)
structure (smiles),measurement,setting,value
C=CCCCCCCCC(=O)O.[K] [Potassium-9 Decenoic Acid],% reduction in growth vs. control,[1]; Non-pH adjusted (6.75),96.5%
same,% reduction in growth vs. control,[1]; pH 7.5,96.2%
same,% reduction in growth vs. control,[1]; pH 8.5,93.9%
same,% reduction in growth vs. control,[2]; Non-pH adjusted (6.75),98.5%
same,% reduction in growth vs. control,[2]; pH 7.5,18.5%
same,% reduction in growth vs. control,[2]; pH 8.5,37.4%
same,reduction in growth when compared to controls,[3],≥ 96%
same,"Solubility, Concentration",[4]; in isopropanol,10 mg/g
same,"Solubility, Concentration",[4]; in water,240 mg/g
same,reduction in growth,"[5]; pH 7.5, concentrations of Tables 15-17",96%
same,reduction in growth,"[5]; pH 8.5, concentrations of Tables 15-17",94%
same,% reduction in growth vs. control,[6]; 0.025% w/v 9DA from K9DA,100.0%
same,Abs at 600 nm,[6]; 0.025% w/v 9DA from K9DA,−0.038
same,% reduction in growth vs. control,[6]; 0.05% w/v 9DA from K9DA,96.1%
same,Abs at 600 nm,[6]; 0.05% w/v 9DA from K9DA,0.224
same,% reduction in growth vs. control,[7]; 0.075% w/v 9DA from K9DA,88.6%
same,Abs at 600 nm,[7]; 0.075% w/v 9DA from K9DA,0.300
same,% reduction in growth vs. control,[7]; 0.1% w/v 9DA from K9DA,99.1%
same,Abs at 600 nm,[7]; 0.1% w/v 9DA from K9DA,0.023
same,% reduction in growth vs. control,[8]; 0.05% w/v 9DA from K9DA,97.3%
same,Abs at 600 nm,[8]; 0.05% w/v 9DA from K9DA,0.157
same,% reduction in growth vs. control,[8]; 0.075% w/v 9DA from K9DA,98.4%
same,Abs at 600 nm,[8]; 0.075% w/v 9DA from K9DA,0.094
same,% reduction in growth vs. control,[9]; 0.075% w/v 9DA from K9DA,98.4%
same,Abs at 600 nm,[9]; 0.075% w/v 9DA from K9DA,0.093
same,% reduction in growth vs. control,[9]; 0.1% w/v 9DA from K9DA,96.2%
same,Abs at 600 nm,[9]; 0.1% w/v 9DA from K9DA,0.216
same,% reduction in growth vs. control,[10]; 0.05% w/v 9DA from K9DA,96.9%
same,Abs at 600 nm,[10]; 0.05% w/v 9DA from K9DA,0.190
same,% reduction in growth vs. control,[10]; 0.075% w/v 9DA from K9DA,97.3%
same,Abs at 600 nm,[10]; 0.075% w/v 9DA from K9DA,0.165
same,% reduction in growth vs. control,[11]; 0.05% w/v 9DA from K9DA,93.3%
same,Abs at 600 nm,[11]; 0.05% w/v 9DA from K9DA,0.461
same,% reduction in growth vs. control,[11]; 0.075% w/v 9DA from K9DA,96.9%
same,Abs at 600 nm,[11]; 0.075% w/v 9DA from K9DA,0.211
same,% reduction in growth vs. control,[12]; 0.075% w/v 9DA from K9DA,97.7%
same,Abs at 600 nm,[12]; 0.075% w/v 9DA from K9DA,0.181
same,% reduction in growth vs. control,[12]; 0.1% w/v 9DA from K9DA,94.6%
same,Abs at 600 nm,[12]; 0.1% w/v 9DA from K9DA,0.412
same,% reduction in growth vs. control,[13]; Non-pH adjusted (6.75),98.6%
same,% reduction in growth vs. control,[13]; pH 7.5,96.2%
same,% reduction in growth vs. control,[13]; pH 8.5,93.9%
